Measured values taken from patent US20060069132A1, “Azolecarboxamide herbicides” (priority 2004, published 2006).

How the values were obtained:
[1] = test system: lambsquarters; experiment: Test B pre-/postemergence herbicide test; assay type: in vivo, Chenopodium album; settings: for Lambsquarters plant response rating (0 to 100 scale): 0 = no effect, 100 = complete control; for Lambsquarters plant response rating (0 to 100 scale) / Plant response rating, Lambsquarters: preemergence; for Plant response rating, Lambsquarters: visual rating 0-100, 0 no effect, 100 complete control; for Lambsquarters plant response rating: postemergence, visual rating, scale 0 (no effect) to 100 (complete control)
Summary of the method: (§1)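 Seeds were planted and treated preemergence with compounds formulated in a non-phytotoxic solvent mixture containing surfactant, while plants at the 1- to 4-leaf stage (2 to 18 cm) received postemergence sprays. Flooded paddy plants were grown to the 2-leaf stage. After 13 to 15 days in a greenhouse, injury was visually rated 0–100 against untreated controls.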

[2] = test system: morningglory; experiment: Test B pre-/postemergence herbicide test; assay type: in vivo, Ipomoea coccinea; settings: for Morningglory plant response rating (0 to 100 scale): 0 = no effect, 100 = complete control; for Morningglory plant response rating (0 to 100 scale) / Plant response rating, Morningglory: preemergence; for Plant response rating, Morningglory: visual rating 0-100, 0 no effect, 100 complete control; for Morningglory plant response rating: postemergence, visual rating, scale 0 (no effect) to 100 (complete control)
Summary of the method: (§2)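 Formulation: non-phytotoxic solvent mix with surfactant. Timing: preemergence on seed and postemergence on 2–18 cm plants, applied concurrently. Readout after 13–15 d greenhouse: visual 0–100 control rating against controls.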

[3] = test system: barnyardgrass; experiment: Test B flooded paddy test; assay type: in vivo, Echinochloa crus-galli; settings: 1000 g ai/ha, visual rating, scale 0 to 100 (0 no effect, 100 complete control), 13 to 15 days
Summary of the method: (§3)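 Scale 0–100: zero equals no visible effect, 100 complete control, judged by eye relative to controls. Timing: 13 to 15 days in greenhouse post-treatment. Growth stage at spraying: two leaves (paddy) or one to four leaves, 2–18 cm (postemergence).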

[4] = test system: giant foxtail; experiment: Test B pre-/postemergence herbicide test; assay type: in vivo, Setaria faberi; settings: for Foxtail, Giant plant response rating (0 to 100 scale): 0 = no effect, 100 = complete control; for Foxtail, Giant plant response rating (0 to 100 scale) / Plant response rating, Foxtail, Giant: preemergence; for Plant response rating, Foxtail, Giant: visual rating 0-100, 0 no effect, 100 complete control; for Foxtail, Giant plant response rating: postemergence, visual rating, scale 0 (no effect) to 100 (complete control)
Summary of the method: as §1

[5] = test system: rice; experiment: Test B flooded paddy test; assay type: in vivo, Oryza sativa; settings: 1000 g ai/ha, visual rating, scale 0 to 100 (0 no effect, 100 complete control), 13 to 15 days
Summary of the method: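 Visual ratings, 0 (no effect) to 100 (complete control), made versus controls after 13–15 d greenhouse. Paddy plants treated at 2-leaf stage; postemergence plants at 1- to 4-leaf stage, 2–18 cm tall.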

[6] = test system: Surinam grass; experiment: Test B pre-/postemergence herbicide test; assay type: in vivo, Urochloa decumbens; settings: for Surinam Grass plant response rating (0 to 100 scale): 0 = no effect, 100 = complete control; for Surinam Grass plant response rating (0 to 100 scale) / Plant response rating, Surinam Grass: preemergence; for Plant response rating, Surinam Grass: visual rating 0-100, 0 no effect, 100 complete control; for Surinam Grass plant response rating: postemergence, visual rating, scale 0 (no effect) to 100 (complete control)
Summary of the method: as §1

[7] = test system: pigweed; experiment: Test B pre-/postemergence herbicide test; assay type: in vivo, Amaranthus retroflexus; settings: for Pigweed plant response rating (0 to 100 scale): 0 = no effect, 100 = complete control; for Pigweed plant response rating (0 to 100 scale) / Plant response rating, Pigweed: preemergence; for Plant response rating, Pigweed: visual rating 0-100, 0 no effect, 100 complete control; for Pigweed plant response rating: postemergence, visual rating, scale 0 (no effect) to 100 (complete control)
Summary of the method: as §1

[8] = test system: velvetleaf; experiment: Test B pre-/postemergence herbicide test; assay type: in vivo, Abutilon theophrasti; settings: for Velvetleaf plant response rating (0 to 100 scale): 0 = no effect, 100 = complete control; for Velvetleaf plant response rating (0 to 100 scale) / Plant response rating, Velvetleaf: preemergence; for Plant response rating, Velvetleaf: visual rating 0-100, 0 no effect, 100 complete control; for Velvetleaf plant response rating: postemergence, visual rating, scale 0 (no effect) to 100 (complete control)
Summary of the method: as §1

[9] = test system: blackgrass; experiment: Test B postemergence herbicide test; assay type: in vivo, Alopecurus myosuroides; settings: postemergence, visual rating, scale 0 (no effect) to 100 (complete control)
Summary of the method: as §3

[10] = test system: wheat; experiment: Test B postemergence herbicide test; assay type: in vivo, Triticum aestivum; parameters: key to Wheat plant response rating: 0 = no effect, 100 = complete control; settings: postemergence, visual rating, scale 0 (no effect) to 100 (complete control)
Summary of the method: (§4)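 Read-out: visual comparison with controls, scored 0 to 100, where 100 means complete control and 0 no effect. Formulated chemicals were applied postemergence to plants 2–18 cm tall (1- to 4-leaf), or to flooded-paddy plants at the 2-leaf stage, then held 13 to 15 days under glass.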

[11] = test system: large crabgrass; experiment: Test B pre-/postemergence herbicide test; assay type: in vivo, Digitaria sanguinalis; settings: for Crabgrass, Large plant response rating (0 to 100 scale): 0 = no effect, 100 = complete control; for Crabgrass, Large plant response rating (0 to 100 scale) / Plant response rating, Crabgrass, Large: preemergence; for Plant response rating, Crabgrass, Large: visual rating 0-100, 0 no effect, 100 complete control; for Crabgrass, Large plant response rating: postemergence, visual rating, scale 0 (no effect) to 100 (complete control)
Summary of the method: as §1

[12] = test system: cocklebur; experiment: Test B pre-/postemergence herbicide test; assay type: in vivo, Xanthium strumarium; settings: for Cocklebur plant response rating (0 to 100 scale): 0 = no effect, 100 = complete control; for Cocklebur plant response rating (0 to 100 scale) / Plant response rating, Cocklebur: preemergence; for Plant response rating, Cocklebur: visual rating 0-100, 0 no effect, 100 complete control; for Cocklebur plant response rating: postemergence, visual rating, scale 0 (no effect) to 100 (complete control)
Summary of the method: as §2

[13] = test system: wild oat; experiment: Test B postemergence herbicide test; assay type: in vivo, Avena fatua; settings: postemergence, visual rating, scale 0 (no effect) to 100 (complete control)
Summary of the method: as §4

[14] = test system: barnyardgrass; experiment: Test B pre-/postemergence herbicide test; assay type: in vivo, Echinochloa crus-galli; settings: for Barnyardgrass plant response rating (0 to 100 scale): 0 = no effect, 100 = complete control; for Barnyardgrass plant response rating (0 to 100 scale) / Plant response rating, Barnyardgrass: preemergence; for Plant response rating, Barnyardgrass: visual rating 0-100, 0 no effect, 100 complete control; for Barnyardgrass plant response rating: postemergence, visual rating, scale 0 (no effect) to 100 (complete control)
Summary of the method: as §2

[15] = test system: small flower umbrella sedge; experiment: Test B flooded paddy test; assay type: in vivo, Cyperus difformis; settings: 1000 g ai/ha, visual rating, scale 0 to 100 (0 no effect, 100 complete control), 13 to 15 days
Summary of the method: as §3

CCNC(=O)c1ccc(F)c(NC(=O)c2cn(C(C)(C)C)nc2CC)c1 [Compound 193]
30: Morningglory plant response rating ([2]; 125 g ai/ha)
80: Barnyardgrass plant response rating [3] | Rice plant response rating [5] | Surinam Grass plant response rating (0 to 100 scale) ([6]; 125 g ai/ha) | Sedge, Umbrella plant response rating [15]
50: Velvetleaf plant response rating ([8]; 125 g ai/ha)
10: Foxtail, Giant plant response rating ([4]; 125 g ai/ha) | Surinam Grass plant response rating ([6]; 125 g ai/ha) | Surinam Grass plant response rating ([6]; 500 g ai/ha) | Wheat plant response rating ([10]; 125 g ai/ha) | Wheat plant response rating ([10]; 500 g ai/ha) | Crabgrass, Large plant response rating ([11]; 125 g ai/ha) | Crabgrass, Large plant response rating ([11]; 500 g ai/ha) | Cocklebur plant response rating (0 to 100 scale) ([12]; 125 g ai/ha) | Barnyardgrass plant response rating ([14]; 500 g ai/ha)
0: Blackgrass plant response rating ([9]; 125 g ai/ha) | Oat, Wild plant response rating ([13]; 125 g ai/ha) | Oat, Wild plant response rating ([13]; 500 g ai/ha) | Barnyardgrass plant response rating ([14]; 125 g ai/ha)
100: Lambsquarters plant response rating (0 to 100 scale) ([1]; 125 g ai/ha) | Plant response rating, Lambsquarters ([1]; 500 g ai/ha) | Plant response rating, Morningglory ([2]; 500 g ai/ha) | Foxtail, Giant plant response rating (0 to 100 scale) ([4]; 125 g ai/ha) | Plant response rating, Foxtail, Giant ([4]; 500 g ai/ha) | Plant response rating, Surinam Grass ([6]; 500 g ai/ha) | Pigweed plant response rating (0 to 100 scale) ([7]; 125 g ai/ha) | Plant response rating, Pigweed ([7]; 500 g ai/ha) | Plant response rating, Velvetleaf ([8]; 500 g ai/ha) | Crabgrass, Large plant response rating (0 to 100 scale) ([11]; 125 g ai/ha) | Plant response rating, Crabgrass, Large ([11]; 500 g ai/ha) | Plant response rating, Barnyardgrass ([14]; 500 g ai/ha)
70: Morningglory plant response rating ([2]; 500 g ai/ha) | Velvetleaf plant response rating (0 to 100 scale) ([8]; 125 g ai/ha) | Velvetleaf plant response rating ([8]; 500 g ai/ha) | Plant response rating, Cocklebur ([12]; 500 g ai/ha) | Cocklebur plant response rating ([12]; 500 g ai/ha)
20: Foxtail, Giant plant response rating ([4]; 500 g ai/ha) | Pigweed plant response rating ([7]; 125 g ai/ha) | Blackgrass plant response rating ([9]; 500 g ai/ha) | Cocklebur plant response rating ([12]; 125 g ai/ha)
40: Morningglory plant response rating (0 to 100 scale) ([2]; 125 g ai/ha)
60: Pigweed plant response rating ([7]; 500 g ai/ha)
90: Lambsquarters plant response rating ([1]; 125 g ai/ha) | Lambsquarters plant response rating ([1]; 500 g ai/ha) | Barnyardgrass plant response rating (0 to 100 scale) ([14]; 125 g ai/ha)

CCN(CC)C(=O)c1cccc(NC(=O)c2sc(C(C)(C)C)nc2C)c1 [Compound 199]
70: Lambsquarters plant response rating ([1]; 500 g ai/ha) | Plant response rating, Surinam Grass ([6]; 500 g ai/ha)
40: Morningglory plant response rating ([2]; 125 g ai/ha) | Pigweed plant response rating ([7]; 500 g ai/ha)
0: Morningglory plant response rating (0 to 100 scale) ([2]; 125 g ai/ha) | Velvetleaf plant response rating (0 to 100 scale) ([8]; 125 g ai/ha) | Blackgrass plant response rating ([9]; 125 g ai/ha) | Wheat plant response rating ([10]; 125 g ai/ha) | Cocklebur plant response rating (0 to 100 scale) ([12]; 125 g ai/ha) | Plant response rating, Cocklebur ([12]; 500 g ai/ha) | Barnyardgrass plant response rating ([14]; 125 g ai/ha)
100: Plant response rating, Foxtail, Giant ([4]; 500 g ai/ha) | Plant response rating, Pigweed ([7]; 500 g ai/ha) | Plant response rating, Crabgrass, Large ([11]; 500 g ai/ha)
80: Lambsquarters plant response rating (0 to 100 scale) ([1]; 125 g ai/ha)
90: Plant response rating, Lambsquarters ([1]; 500 g ai/ha) | Pigweed plant response rating (0 to 100 scale) ([7]; 125 g ai/ha) | Crabgrass, Large plant response rating (0 to 100 scale) ([11]; 125 g ai/ha) | Plant response rating, Barnyardgrass ([14]; 500 g ai/ha)
60: Lambsquarters plant response rating ([1]; 125 g ai/ha) | Plant response rating, Morningglory ([2]; 500 g ai/ha) | Morningglory plant response rating ([2]; 500 g ai/ha) | Plant response rating, Velvetleaf ([8]; 500 g ai/ha) | Cocklebur plant response rating ([12]; 500 g ai/ha)
20: Rice plant response rating [5] | Surinam Grass plant response rating ([6]; 500 g ai/ha) | Velvetleaf plant response rating ([8]; 125 g ai/ha) | Barnyardgrass plant response rating (0 to 100 scale) ([14]; 125 g ai/ha)
30: Velvetleaf plant response rating ([8]; 500 g ai/ha)
10: Barnyardgrass plant response rating [3] | Foxtail, Giant plant response rating (0 to 100 scale) ([4]; 125 g ai/ha) | Foxtail, Giant plant response rating ([4]; 125 g ai/ha) | Foxtail, Giant plant response rating ([4]; 500 g ai/ha) | Surinam Grass plant response rating (0 to 100 scale) ([6]; 125 g ai/ha) | Surinam Grass plant response rating ([6]; 125 g ai/ha) | Pigweed plant response rating ([7]; 125 g ai/ha) | Blackgrass plant response rating ([9]; 500 g ai/ha) | Wheat plant response rating ([10]; 500 g ai/ha) | Crabgrass, Large plant response rating ([11]; 125 g ai/ha) | Crabgrass, Large plant response rating ([11]; 500 g ai/ha) | Cocklebur plant response rating ([12]; 125 g ai/ha) | Oat, Wild plant response rating ([13]; 125 g ai/ha) | Oat, Wild plant response rating ([13]; 500 g ai/ha) | Barnyardgrass plant response rating ([14]; 500 g ai/ha) | Sedge, Umbrella plant response rating [15]
